Experimental findings from patent US20210353648A1, “GRAPIPRANT UNIT DOSAGE FORMS” (Arrys Therapeutics, Inc., priority 2018, published 2021) are described below.

What all share (assay type): in vivo, BALB/c mice
Assay [1] deals with CT-26 mouse colon adenocarcinoma model. Nature of the assay: Anti-tumor activity in the CT-26 colon adenocarcinoma mouse model, alone and with anti-PD-1. As for the experimental part: The antitumor activity of Compound B as a single agent and combined with a mouse anti-PD-1 antibody was evaluated in the CT-26 mouse colon adenocarcinoma model grown in BALB/c mice. Mice were inoculated subcutaneously in the right flank with 5×10^5 tumor cells. When tumors reached an average size of 71 mm^3 (6 days after tumor cell inoculation) dosing was initiated. The dosing regimens in the 8 separate cohorts comprising 10 mice each are as follows: […]

Another assay deals with CT-26 tumors. The assay is described as follows: Immune cell composition of CT-26 tumors by flow cytometry. Particulars: after 7 days dosing; Compound B 15 mg/kg BID, anti-PD-1 10 mg/kg Q3D; versus vehicle. Here is the method:
The immune cell composition of Compound B (as described in example 9 above) as a single agent and combined with a mouse anti-PD1 antibody was evaluated in the CT-26 mouse colon adenocarcinoma model grown in BALB/c mice. Mice were inoculated subcutaneously in the right flank with 5×10^5 tumor cells. When tumors reached an average size of 85 mm^3 dosing was initiated. The dosing regimens in the 4 separate cohorts comprising 10 mice each are listed as follows:
After dosing animals for 7 days, tumors were resected and used to prepare single cell suspensions. Live cells representing tumor and immune cells were stained with cocktails of antibodies targeting multiple immune cell markers (anti-CD45, anti-CD3, anti-CD4, anti-CD8, anti-CD25, anti-FoxP3, anti-PD-1, anti-CD11c) conjugated to different fluorescent tags. The stained cells were fixed in 4% paraformaldehyde and quantified using a multi-color flow cytometer (Fortessa). The data was analyzed with FloJo software.

In assay [2] the test system is CT-26 mouse colon adenocarcinoma model. Nature of the assay: Anti-tumor activity in the CT-26 model, additional experiment with anti-PD1. Particulars: single agents (Compound B 15 mg/kg BID; anti-PD1 10 mg/kg BIW) versus vehicle, n=7/group. As for the experimental part: The antitumor activity of Compound B as a single agent and combined with a mouse anti-PD1 antibody was evaluated in the CT-26 mouse colon adenocarcinoma model grown in BALB/c mice in an additional experiment. Mice were inoculated subcutaneously in the right flank with 5×10^5 tumor cells. When tumors reached an average size of 91 mm^3 dosing was initiated. The dosing regimens in the 4 separate cohorts comprising 7 mice each are as follows: […]

Assay [3] concerns 4T1 mouse breast cancer model. The assay is described as follows: Anti-tumor activity in the 4T1 breast cancer mouse model, alone and with anti-CTLA4. Here is the method:
The antitumor activity of Compound B (as described in example 9 above) as a single agent and combined with a mouse anti-CTLA4 antibody was evaluated in the 4T1 mouse breast cancer model grown in BALB/c mice. Mice were inoculated subcutaneously in the right flank with 3×10^5 tumor cells. When tumors reached an average size of 100 mm^3 (7 days after tumor cell inoculation) dosing was initiated.

In assay [4] the test system is 4T1 mouse breast cancer model. The assay is described as follows: Anti-tumor activity in the 4T1 model, additional experiment with anti-PD1. Particulars: Compound B 15 mg/kg BID single agent, n=7/group. Here is the method:
The antitumor activity of Compound B as a single agent and combined with a mouse anti-PD1 antibody was evaluated in the 4T1 mouse breast cancer model grown in BALB/c mice in an additional experiment. Mice were inoculated subcutaneously in the right flank with 3×10^5 tumor cells. When tumors reached an average size of 97 mm^3 dosing was initiated. The dosing regimens in the 4 separate cohorts comprising 7 mice each are as follows: […]

Molecules are shown by their SMILES.

Turning to `C[C@H](NC(=O)c1cc(Cl)cnc1Oc1cccc(F)c1)c1ccc(C(=O)O)cc1` [Compound B], the “tumor growth kinetics during the period of dosing” value in assay [1] (15 mg/kg QD and BID p.o., single agent, versus vehicle, n=10/group) is “not notably different from the vehicle treated mice”; in assay [2] it was “less than that of the vehicle group”; in assay [3] (single agents (Compound B 15 mg/kg BID; anti-CTLA4) versus vehicle, n=10/group), “decreased relative to the vehicle treated mice”; in assay [4], “less than that of the vehicle group and anti-PD1 when dosed alone”. The mice still alive in assay [1] (99 days after tumor inoculation) was 1 out of 10 mice; in assay [3] (47 days after tumor inoculation), “none”. This compound displayed a tumor free mice in assay [1] (99 days after tumor inoculation, 10 mice per group) of 1 mice. For the same compound, the “percentage of activated T cells (CD45, CD3, CD8; CD25 expression)” value in the assay with CT-26 tumors is recorded as “did not”. For the same compound, in the assay with CT-26 tumors, the “percentage of dendritic cells (CD45, CD11c positive)” value is recorded as “increased percentage”. The “regulatory T cells (CD45, CD4, FoxP3, CD25 positive)” value in the assay with CT-26 tumors is on record as “significant decrease”.
